Like-named read-outs stand apart in the source and are kept apart here.

Data set [1] in a line: Anti-metabolic effect (MTS) in replicon cells. To be noted: human. As for the experimental part:
(§1) Dilution series are prepared; each dilution series is performed in at least duplicate.
(§2) The selectivity index (SI), indicative of the therapeutic window of the compound, is calculated as CC50/EC50.
(§3) Compounds were analysed in the genotype 1b replicon assay using Huh5.2 cells as described in the General Methods.

The subject of another data set is HIV. Put plainly: microbe, parasite or virus in culture. It is filed as cell-based. To be noted: Human immunodeficiency virus 1, HeLa, read-out: HeLa cells EC50. As for the experimental part:
Briefly, human PBMCs were purified from fresh blood by banding on Ficoll-Hypaque (30 min, 800 g, 25° C.). Primary human CD4+ T cells were purified from PBMCs by positive selection with anti-CD4 Dynabeads and subsequent release using Detachabead. […] Three days after stimulation, cells were split 1:2 in medium containing IL-2 (200 units/ml final concentration). Cultures were then split 1:2 every 2 days in IL-2 medium and infected with HIV at 7 days after stimulation. […] To obtain monocyte-derived macrophages, cells were allowed to adhere to plastic and cultured for 6 days to allow differentiation.
CD4+ HeLa cells, Jurkat cells, activated CD4+ peripheral blood T-lymphocytes and macrophages (500,000 cells/100 μL) were incubated with pNL4.3-GFP (X4 virus) or pNL4.3-BaL-GFP (R5 virus) (100 ng of p24) in the presence of increasing concentrations of test article, Forty-eight hours later, infection was scored by analyzing the percentage of GFP-positive cells by FACS and EC50 calculated.
Compounds were analysed in an HIV antiviral assay using HeLa cells as described in the General Methods.

For data set [2], the system named is HCV genotype 1b I389luc-ubi-neo/NS3-3'/5.1 replicon in Huh5.2 cells. Kind of data set: HCV genotype 1b replicon assay, antiviral effect (luciferase). To be noted: for EC50: Hepatitis C virus, Huh-5-2, 72 h; for Selectivity index (CC50/EC50): Huh5.2 replicon assay. It is filed as cell-based, Hepatitis C virus. The method, then:
as §1
For the evaluation of antiviral effects, assay medium is aspirated and the cell monolayers are washed with PBS. The wash buffer is aspirated, 25 μL of Glo Lysis Buffer (Cat. No. E2661, Promega) is added after which lysis is allowed to proceed for 5 min at room temperature. Subsequently, 50 μL of Luciferase Assay System (Cat. No. E1501, Promega) is added and the luciferase luminescence signal is quantified immediately (1000 ms integration time/well, Safire^2, Tecan). Relative luminescence units are converted to percentage of untreated controls.
as §2, §3

The target of the next data set is MRP2 (Homo sapiens (Human), UniProt Q92887). Put plainly: Vesicular efflux transporter inhibition, MRP2. The method, then: (§4) To assess the inhibition of the MRP2, MRP3 and BSEP efflux transporters, an in vitro vesicular transporter assay from Solvo Biotechnology Inc. was used. […] In the case of MRP2 and MRP3 transporters reactions were carried out in the presence of 2 mM glutathione. Reaction mixtures were preincubated for ten minutes at 37° C. Reactions were started by the addition of 25 μl of 12 mM MgATP (4 mM final concentration in assay) or assay buffer for background controls. Reactions were stopped by adding 200 μl of ice-cold washing buffer and immediately followed by filtration on glass fiber filters in a 96-well format (filter plate). Scintillation buffer was added to the washed and dried filter plate and scintillation was counted subsequently. Probe substrates were taurocholate (2 μM) for BSEP vesicles and E217βG (1 μM) for MRP2 and MRP3 vesicles. For all wells the translocated amount of the probe substrate was determined in cpm units. Relative activities were calculated with the following equation:
(§5) Activity %=(A−B)/(C−D)×100 Where A=translocated amount of substrate in the presence of TA and ATP, B=translocated amount of substrate in the presence of TA, C=translocated amount of substrate in the presence of solvent and ATP and D=translocated amount of substrate in the presence of solvent. […]

For data set [3], the target named is Bile Salt Export Pump (BSEP) (Homo sapiens (Human), UniProt O95342). Put plainly: Vesicular efflux transporter inhibition, BSEP. It is filed as biochemical. To be noted: membrane vesicles, probe taurocholate. As for the experimental part:
Relative activities were calculated with the following equation: […]

The target in a further data set is CypA (Homo sapiens (Human), UniProt P62937). Put plainly: biochemical. As for the experimental part:
An alternative methodology for analysing interaction with cyclophilins is described as follows: The PPlase activity of recombinant CypA or D, produced by thrombin cleavage of GST-CypA or D, was determined by following the rate of hydrolysis of N-succinyl-Ala-Ala-Pro-Phe-p-nitroanilide by chymotrypsin. Chymotrypsin only hydrolyzes the trans form of the peptide, and hydrolysis of the cis form, the concentration of which is maximized by using a stock dissolved in trifluoroethanol containing 470 mM LiCl, is limited by the rate of cis-trans isomerization. CypA or D was equilibrated for 1 h at 5° C. with selected test article using a drug concentration range from 0.1 to 20 nM. The reaction was started by addition of the peptide, and the change in absorbance was monitored spectrophotometrically at 10 data points per second. The blank rates of hydrolysis (in the absence of CypA or D) were subtracted from the rates in the presence of CypA or D. The initial rates of the enzymatic reaction were analyzed by first-order regression analysis of the time course of the change in absorbance.
To assess the direct inhibition of CypA Peptidyl Prolyl cis-trans Isomerase (PPlase) activity, a method was used as described in the general methods.

Data set [4] concerns the target P-glycoprotein (Pgp/MDR1) (Homo sapiens (Human), UniProt P08183). Put plainly: Inhibition of Pgp transporter using MDR1-MDCK cells. It is filed as cell-based. To be noted: loperamide substrate.
Method: To assess the inhibition of the P-glycoprotein (Pgp/MDR1) transporter, an in vitro ATPase assay from Cyprotex was used. MDR1—MDCK cells obtained from the NIH (Rockville, Md., USA) were used. Following culture, the monolayers were prepared by rinsing both basolateral and apical surfaces twice with buffer at pH 7.4 and 37° C. […] For the apical to basolateral study (A-B), buffer at pH 7.4 was removed from the apical compartment and replaced with loperamide dosing solutions before being placed in the ‘companion’ plates. The solutions were prepared by diluting loperamide in DMSO with buffer to give a final loperamide concentration of 5 μM (final DMSO concentration adjusted to 1%). The fluorescent integrity marker Lucifer yellow was also included in the dosing solution. The experiment was performed in the presence and absence of the test compound (applied to both the apical and basolateral compartments). For basolateral to apical (B-A) study, the P-glycoprotein substrate, loperamide (final concentration=5 μM) was placed in the basolateral compartment. The experiment was performed in the presence and absence of the test compound (applied to the apical and basolateral compartments). […] The test compound was assessed at 0.1, 0.3, 1, 3, 10, 30 and 50 μM. […] After analysis, an IC50 was calculated (i.e., inhibitor concentration (test drug) achieving half maximal inhibition effect).
Data set [5] can be described thus: Mouse in vivo oral and iv PK. The conditions noted are these: male, CD1 mice, whole blood; for clearance: iv at 1 mg/kg; for AUC(0-t): read-out: po AUClast. The method, then: For sanglifehrin analogues, whole blood is analysed. Compounds are formulated in 5% ethanol/5% cremophor EL/90% saline for both p.o. and i.v. administration. Groups of 3 male CD1 mice are dosed with either 1 mg/kg i.v. or 5 or 10 mg/kg p.o. Blood samples (40 μL) are taken via saphenous vein, pre-dose and at 0.25, 0.5, 2, 8, and 24 hours, and diluted with an equal amount of dH20 and put on dry ice immediately. Samples are stored at −70° C. until analysis. The concentration of the compound of the invention or parent compound in the sample is determined via LCMS as follows: 20 μL of blood:H2O (1:1, v/v)/PK sample is added with 20 μL Internal standard (hydroxyl macrocycle, 6) at 100 ng/mL, 20 μL working solution/MeOH and 150 μL of ACN, vortexed for 1 minute at 1500 rpm, and centrifuged at 12000 rpm for 5 min. The supernatant is then injected into LC-MS/MS. The time-course of blood concentrations is plotted and used to derive area under the whole blood concentration-time curve (AUC—which is directly proportional to the total amount of unchanged drug that reaches the systemic circulation). These values are used to generate PK parameters where possible.
To assess the pharmacokinetics of the compounds in an in vivo setting, compounds were dosed po at 10 or 5 mg/kg and iv at 1 mg/kg to groups of CD1 mice. Pharmacokinetic analysis was carried out as described in the general methods. The PK parameters are shown below.

Another data set addresses OATP1B3 (Homo sapiens (Human), UniProt Q9NPD5). Put plainly: Uptake transporter inhibition, OATP1B3. It is filed as cell-based. To be noted: CHO cells, probe substrate Fluo-3. The method, then:
(§6) To assess the inhibition of the […] and OAT1B3 uptake transporters, an in vitro uptake transporter assay from Solvo Biotechnology Inc. was used. […] Parental cell line CHO-K was used as negative control. […] Before experiments the medium was aspirated by vacuum suction, cells were washed with 2×100 μl of Krebs-Henseleit buffer pH 7.3 (prepared from Sigma chemicals, Sigma-Aldrich, St Louis, Mo.). Uptake experiments were carried out at 37° C. in 50 μl of Krebs-Henseleit buffer (pH 7.3) containing the probe substrate and the TA or solvent, respectively. […] The probe substrate for the OATP1B1 assay was E3S (0.1 μM) and for the OATP1B3 assay was Fluo-3 (10 μM). The translocated amount of probe substrate was determined for each well in cpm. Relative activities were calculated from the equation: Activity%=(A−B)/(C−D)×100

The target in the next data set is OATP1B1 (Homo sapiens (Human), UniProt Q9Y6L6). Put plainly: Uptake transporter inhibition, OATP1B1. To be noted: CHO cells, probe substrate E3S. It is filed as cell-based. The method, then:
as §6

A further data set concerns the target MRP3 (Homo sapiens (Human), UniProt O15438). Put plainly: Vesicular efflux transporter inhibition, MRP3. As for the experimental part:
as §4, §5

Another data set concerns Huh5.2 cells. Put plainly: Anti-metabolic effect (MTS) in replicon cells. To be noted: Huh5.2 cells, MTS, 72 hours. As for the experimental part:
as §1, §2, §3
Background: In antiviral work, replicon cells carry a viral genome segment that copies itself.

Another data set has as its system HBV. The conditions noted are these: Ptak et al. 2008; read-out: IC50 against HBV; cited from earlier work.

On to `CC(=O)CC[C@H]1C(=O)N[C@@H](C(C)C)C(=O)N[C@@H](Cc2cc(O)cc(F)c2)C(=O)N2CCCC(N2)C(=O)O[C@H](/C(C)=C/C=C/C(=O)N2CCCCO2)C/C=C/C=C/[C@H](O)[C@H](C)[C@H]1O` (stereo partly drawn) [Compound 24], for which, in data set [1], the CC50 (as a rule, the concentration giving 50% cytotoxicity) at 72 h was > 100000 nM. The EC50 (in general, the concentration that produces a half-maximal response) in the data set on HIV came out at 130 nM; in data set [2], 33 nM. In [2], the “Selectivity index (CC50/EC50)” value was >3030. The IC50 (as a rule, the midpoint of a concentration-inhibition curve) against MRP2 was > 50000 nM; in data set [3], 12300 nM; on CypA, 0.31 nM; in [4], > 50000 nM; on OATP1B3, 1800 nM; on OATP1B1, 4300 nM. Moreover, the IC50 against MRP3 is > 50000 nM. Moreover, the clearance in data set [5] was 0.283 mL/min/kg. Also, the AUC(0-t) in data set [5] (po 5 mg/kg) came to 8220 ng·h/mL.

Regarding `C/C=C/C[C@@H](C)[C@@H](O)[C@H]1C(=O)N[C@@H](CC)C(=O)N(C)[C@H](C)C(=O)N(CC)[C@@H](C(C)C)C(=O)N[C@@H](C(C)C)C(=O)N(C)[C@@H](CC(C)C)C(=O)N[C@@H](C)C(=O)N[C@H](C)C(=O)N(C)[C@@H](CC(C)C)C(=O)N(C)[C@@H](CC(C)C)C(=O)N(C)[C@@H](C(C)C)C(=O)N1C` [DEBIO-025, 2, DEBIO-025], in the data set with Huh5.2 cells, it took 11200 nM to reach half-maximal cytotoxicity (CC50). Also, the results for the EC50 (with HIV; in [2]) were 1500 nM and 96 nM, respectively. In addition, in data set [2], the “Selectivity index (CC50/EC50)” value worked out at 111. Besides, the IC50 was 16000 nM at MRP2; 180 nM in [3]; 0.8 nM at CypA (read-out: CypA PPIase IC50, recombinant CypA); 4100 nM with HBV; 720 nM in [4]; 190 nM against OATP1B3. Further, the figures for the IC50 against OATP1B1 and at MRP3 were 450 nM and > 50000 nM, respectively.

As to `Nc1nc(=O)n([C@@H]2CS[C@H](CO)O2)cc1F` [Emtricitabine], in the data set with HIV, the EC50 is 400 nM.

`CC(=O)CC[C@H]1C(=O)N[C@@H](C(C)C)C(=O)N[C@@H](Cc2cccc(O)c2)C(=O)N2CCC[C@H](N2)C(=O)O[C@H](/C(C)=C/CO)C/C=C/C=C/[C@H](O)[C@H](C)[C@H]1O` [Hydroxymacrocycle, 6] yielded a CC50 at 72 h in data set [1] of 83600 nM. Moreover, in [2], the EC50 is 8400 nM and the “Selectivity index (CC50/EC50)” value was 9.9.

For the compound `CC[C@H]1C[C@H](C)[C@@]2(NC1=O)O[C@@H](C[C@H](O)[C@@H](C)CC/C=C/C=C(\C)[C@@H]1C/C=C/C=C/[C@H](O)[C@H](C)[C@@H](O)[C@@H](CCC(C)=O)C(=O)N[C@@H](C(C)C)C(=O)N[C@@H](Cc3cccc(O)c3)C(=O)N3CCC[C@H](N3)C(=O)O1)[C@H](C)[C@H](O)[C@@H]2C` [Sanglifehrin A, 5, Sanglifehrin A], in [1], it took 9100 nM to reach half-maximal cytotoxicity (CC50 at 72 h). In data set [2], the half-maximal effective concentration (EC50) turned out to be 318 nM. In data set [5], this compound showed a clearance of 0.9 mL/min/kg. In addition, in data set [5] (po 10 mg/kg), the AUC(0-t) was found to be 2330 ng·h/mL.

Values taken from US9090657B2, “Compound and methods for its production” (NEUROVIVE PHARMACEUTICAL AB, priority 2011, dated 2015).
